Results taken from BindingDB's records for doi:10.1007/s00044-005-0131-1 (Universite De Lille, 2005).
“And” between values parts separate entries of the source, which are not always exact repeats. Identical values can stand only once.

Molecular target: Sigma non-opioid intracellular receptor 1 (Cavia porcellus, UniProt Q60492)
Assay: Binding Assay
From the text: Binding assay using sigma receptors.

Sequence of Sigma non-opioid intracellular receptor 1 (Q60492 whole entry): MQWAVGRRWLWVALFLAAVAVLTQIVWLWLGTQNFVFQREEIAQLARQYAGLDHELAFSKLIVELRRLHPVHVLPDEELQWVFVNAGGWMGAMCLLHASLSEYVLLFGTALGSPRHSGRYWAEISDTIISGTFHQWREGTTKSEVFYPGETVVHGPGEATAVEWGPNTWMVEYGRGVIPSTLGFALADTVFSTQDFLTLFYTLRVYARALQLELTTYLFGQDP

Structure (SMILES) | Ki
C=C(CC)c1ccc2c(c1)sc(=O)n2CCCCN1CCCCC1 [6-(but-1-en-2-yl)-3-[4-(piperidin-1-yl)butyl]-2,3-dihydro-1,3-benzothiazol-2-one, 12] | 2.9 nM and 13 nM
CCCc1ccc2c(c1)sc(=O)n2CCN1C[C@]2(C)CCC[C@]2(C)C1 [3-{2-[(3aR,6aS)-3a,6a-dimethyl-octahydrocyclopenta[c]pyrrol-2-yl]ethyl}-6-propyl-2,3-dihydro-1,3-benzothiazol-2-one, 13] | > 1000 nM
